Consider five sequences from patent US20170202939A1, “PERSONALIZED CANCER VACCINES AND METHODS THEREFOR” (Washington University, priority 2014, published 2017).

No end group written: not given here.

The subject of this data set is DM6 cells expressing TMC. Nature of the data set: processing and presentation: T cells co-cultured with DM6 expressing tandem mini-gene constructs (51Cr release, IFN-γ ELISA). The class given is cell-based, human. To be noted: for neoantigen processing and presentation (cytotoxic activity, IFN-γ production): DM6 expressing AAS-/MUT-encoding mini-gene construct. The text has this:
As illustrated in FIG. 9 and FIG. 10, to determine whether vaccine-induced T cells could recognize naturally processed antigen, the melanoma tumor cell line DM6 was transduced with a multi-mini-gene construct encoding mutated (MUT) or wild-type (WT) sequences of peptides incorporated into a vaccine. FIG. 9 illustrates that each minigene consists of 21 aa encoding either the MUT or WT sequences. A scheme depicting minigene construct characteristics and a representative MUT 21-mer aa sequence encoded in construct is shown. Vaccine-induced T cells, specific for AKAP13 containing the Q285K mutation, were incubated with MUT or WT expressing DM6 cells, supernatants collected after 24 h of incubation, and IFN-γ produced by T cells was measured in supernatants by ELISA (FIG. 10).
Tandem mini-gene constructs (TMC) were used for evaluating processing and presentation of neoantigens. All constructs were 19-21-mers encoding AAS- or WT-sequences for peptides included in vaccine. No spacers are present between sequences. A ubiquitination signal and two mini-gene controls (encoding G280 and WNV SVG9 peptides) were included to monitor processing and presentation. The amino acid sequence of a 21-mer encoding TMEM48 F169L is shown with mutated amino acid residue underlined. TMC also encoded the West Nile Virus (WNV) SVG9 (McMurtrey, C. P., et al., P.N.A.S., 105, 2981-2986, 2008) and melanoma G280 (Cox, A. L., et al., Science, 264, 716-719, 1994) antigenic determinants as controls (Table 6).
TMC were cloned into pMX (GFP+), expressed as retrovirus and used to transfect the HLA-A*02:01+ melanoma lines DM6 (Darrow, T. L., et al., J. Immunol., 142, 3329-3335, 1989) or A375 (obtained from ATCC and mycoplasma free). TMC expressing cells were selected by sorting for GFP+ cells expressing cell surface HLA-A*02:01/SVG9 peptide complexes as detected by a T cell receptor mimic (TCRm) monoclonal antibody (Kim S., et al., J. Immunol., 184, 4423-4430, 2010). AAS- and WT-TMC reactivity with the HLA-A*02:01/SVG9 peptide complex specific TCRm monoclonal antibody validated expression of the mini-gene constructs. […] Results are shown for parental DM6 (shaded histogram) and DM6 cells expressing AAS—(dashed line) and WT (solid line) TMC constructs. A representative experiment of four performed is shown.
DM6 cells expressing TMC were labeled with 25μCi ^51Cr for 1 h, washed and tested as targets in a standard 4 h assay using neoantigen-specific T cells as effectors (Carreno B. M. et al. 2012 J Immunol 188, 5839). DM6 cells expressing AAS—(closed rectangles) or WT—(closed circles) TMC were co-cultured with neoantigen-specific T cells at a 1:1 ratio, supernatants harvest at 16 h and IFN-γ production evaluated by ELISA as described (Carreno, B. M., et al., J Immunol., 188, 58395849, […]; plots in FIG. 38). Open triangles represent lysis obtained with parental DM6 cells. Percent specific lysis of triplicates (mean+standard deviation) is shown for each E:T ratio; spontaneous lysis was <5%. A representative experiment of two independent evaluations is shown.
FIG. 39 illustrates that neoantigen-specific CD8 T cells were co-cultured with DM6 expressing AAS- or WT-encoding TMC for 20 h and IFN-γ production determined by ELISA. T cells cultured with parental DM6 cells are indicated as media. Mean values+/−SD of duplicates are shown. Results are representative of 2 experiments performed. […] None of the neoantigen-specific T cells recognized WT-encoding TMC (FIGS. 38 and 39). Based on these findings and the immune monitoring results (FIG. 31), the nine neoantigens identified in this study fall into three distinct antigenic determinant categories (Sercarz, E. E., et al., Annu. Rev. Imunol., 11, 729-766, 1993; Assarsson, E., et al., J. Immunol., 178, 7890-7901, 2007).

Turning to CLNEYHLFL, the “Recognition of processed antigen” value is “Yes”; the “neoantigen processing and presentation (cytotoxic activity, IFN-γ production)” value (“neoantigen processing and presentation” below) is “processed and presented”.

IILVAVPHV: the “neoantigen processing and presentation” value was “processed and presented”.

For QLSCISTYV, the “Recognition of processed antigen” value is recorded as “No”; the “neoantigen processing and presentation” value was “not processed and presented”.

Turning to MLGEQLFPL, the “Recognition of processed antigen” value is “Yes”; the “neoantigen processing and presentation” value was “processed and presented”.

For KLMNIQQKL, the “Recognition of processed antigen” value is on record as “Yes”. The “neoantigen processing and presentation” value (listed as AKAP13 (Q285K)) was “processed, presented and recognized by vaccine-induced T cells”. The “neoantigen processing and presentation” value (listed as AKAP13 Q285K) is “processed and presented”.
